Assay results from patent US20250040542A1, “USE OF PHENYLPHENALENONES AS A SELECTIVE HERBICIDE” (UNIVERSITE DE LIMOGES, priority 2021, published 2025).

Experiments:
Poppy (Papaver rhoeas) = assay: Greenhouse foliar spraying on weed; assay type: in vivo; parameters: key to Resistance (degree of resistance of the weed to the treatments): least resistant +; most resistant ++++++++
Protocol: (§1) A 5 mM stock solution was prepared in 50% v/v ethanol (96°). Next, the solution was further diluted in distilled water to obtain 10 μM for in vitro testing and 50 μM, 75 μM and 100 μM for greenhouse testing. 0.1% v/v of the surfactant IGEPAL-Co 630 was added to the solution in order to obtain a product ready for spraying on seedlings in the greenhouse.
(§2) The different seeds are grown in a greenhouse in commercial potting soil (Terreau Universel, Fertiligene). The seeds were sown in the greenhouse under controlled temperature and humidity conditions (the temperature varies between 15° C. and 30° C. depending on the season, and the relative humidity varies from 50 to 70%). 6 isolated treatments (approximately 10 sprays each) spaced 48 hours apart were carried out one week after germination.
(§3) After 7 weeks, the seedlings were harvested. The roots and aboveground parts were separated and the roots were washed with distilled water and dried on absorbent paper. These materials were then stored at −20° C.
(§4) The formulation in which the active ingredient is 50 μM Anigorufone was tested on a barley+poppy system and on tomato plants, with two treatments spaced 48 hours apart.
Tests in a greenhouse were carried out. All plants were exposed to 6 treatments with 3 increasing doses spaced 48 hours apart: C1 (50 μM or 13.6 mg/l), C2 (75 μM or 20.4 mg/l), C3 (100 μM or 27.2 mg/l). […]

[1] = system: Tomato Lycopersicon esculentum var Marmande; assay: Greenhouse foliar spraying on plant of interest; assay type: in vivo
Protocol: as §1, §2, §3, §4
(§5) Tests in a greenhouse were carried out. All plants were exposed to 6 treatments with 3 increasing doses spaced 48 hours apart: C1 (50 μM or 13.6 mg/l), C2 (75 μM or 20.4 mg/l), C3 (100 μM or 27.2 mg/l). Harvesting was conducted 7 weeks after germination.

Corn (Zea mays) = assay: Greenhouse foliar spraying on plant of interest; assay type: in vivo; details: 6 treatments spaced 48 hours apart, C1 50 μM, C2 75 μM, C3 100 μM, harvest 7 weeks after germination
Protocol: as §1, §2, §3, §5

Onion (Allium cepa) = assay: Greenhouse foliar spraying on plant of interest; assay type: in vivo; details: 6 treatments spaced 48 hours apart, C1 50 μM, C2 75 μM, C3 100 μM, harvest 7 weeks after germination
Protocol: as §1, §2, §3, §5

[2] = system: Spinach (Spinacia oleracea); assay: Greenhouse foliar spraying on plant of interest; assay type: in vivo; details: 6 treatments spaced 48 hours apart, C1 50 μM, C2 75 μM, C3 100 μM, harvest 7 weeks after germination
Protocol: as §1, §2, §3, §5

[3] = system: Sunflower (Helianthus annuus); assay: Greenhouse foliar spraying on plant of interest; assay type: in vivo; details: 6 treatments spaced 48 hours apart
Protocol: as §1, §2, §3, §5

Turnip (Brassica napa) = assay: Greenhouse foliar spraying on plant of interest; assay type: in vivo; details: 6 treatments spaced 48 hours apart, C1 50 μM, C2 75 μM, C3 100 μM, harvest 7 weeks after germination
Protocol: as §1, §2, §3, §5

Wheat (Triticum sativum) = assay: Greenhouse foliar spraying on plant of interest; assay type: in vivo; details: 6 treatments spaced 48 hours apart, C1 50 μM, C2 75 μM, C3 100 μM, harvest 7 weeks after germination
Protocol: as §1, §2, §3, §5

[4] = system: Dandelion (Taraxacum officinale); assay: Greenhouse foliar spraying on weed; assay type: in vivo; parameters: key: least resistant +; most resistant ++++++++; details: 6 treatments spaced 48 hours apart, C1 50 μM, C2 75 μM, C3 100 μM, harvest 7 weeks after germination; ranking among 8 weeds
Protocol: as §1, §2, §3, §5

[5] = Photodegradation test, exposed to sunlight; assay type: physicochemical; details: 100 μM in distilled water
Protocol: A photodegradation test was conducted on 100 μM anigorufone exposed to sunlight. An anigorufone solution was prepared at the studied dose (100 μM) from a stock solution in 50 ml of distilled water in glass flasks. The flasks were placed outside and exposed to full sunlight. The experiment was carried out three times in June 2022 under light conditions corresponding to sunny/partially clear skies. 1 ml of the solution was run through UV-Vis spectrometry and photodegradation was tracked by the decrease in absorbance at 370 nm. […]

Fishing worms (maggots) = assay: Toxicity test on fishing worms (maggots); assay type: in vivo
Protocol: Fishing worms (maggots) were spray treated with 100 μM (27.2 mg/L) anigorufone. 30 fishing worms were cultured per petri dish and 10 sprays were performed per dish. The fishing worms were cultured under photoperiod conditions (16 h light/8 h dark); 8000 Lux; 22° C.). The experiment was conducted three times. […]

O=C1C(O)=Cc2cccc3ccc(-c4ccccc4)c1c23 [Anigorufone, 2-hydroxy-9-phenylphenalenone]
herbicidal effect on poppy (Poppy (Papaver rhoeas); 50 μM, two treatments spaced 48 hours apart, foliar spraying, 17-day-old seedlings, barley+poppy system): dead | Resistance (degree of resistance of the weed to the treatments) (Poppy (Papaver rhoeas); 6 treatments spaced 48 hours apart, C1 50 μM, C2 75 μM, C3 100 μM, harvest 7 weeks after germination, ranking among 8 weeds): + | growth of tomatoes compared to the control lot ([1]; 50 μM, two treatments spaced 48 hours apart, foliar spraying): does not affect their growth | growth of tomato plants two months after treatment ([1]; 50 μM, two treatments, two months after treatment, compared to untreated plants): normal growth | effect on tomato ([1]; 6 treatments spaced 48 hours apart, C1 50 μM, C2 75 μM, C3 100 μM, harvest 7 weeks after germination): no effect | effect on corn (Corn (Zea mays)): no effect | effect on onion (Onion (Allium cepa)): no effect | effect on spinach [2]: no effect | effect on sunflower ([3]; C1 50 μM, C2 75 μM, C3 100 μM, harvest 7 weeks after germination): no effect | flowering of sunflowers ([3]; treated with C1 (50 μM) and C2 (75 μM)): flowering induction | effect on turnip (Turnip (Brassica napa)): no effect | effect on wheat (Wheat (Triticum sativum)): no effect | Resistance (degree of resistance of the weed to the treatments) [4]: ++++++++ | photodegradation ([5]; after 2 weeks): degraded almost completely | persistent molecules ([5]; after 72 hours, absorbance at 370 nm): 30-40% | viability rate of the maggots compared to the control conditions (Fishing worms (maggots); spray treated with 100 μM (27.2 mg/L), 10 sprays per dish, 30 worms per dish): remains constant | effects on fishing worms (Fishing worms (maggots); tested at 100 μM (27.2 mg/L), spray): no effects
